# Where no end group is shown, it is not given here.
# Experiments:
# [1] = test system: morphine tolerant animals; experiment: Tail-flick analgesia, morphine s.c. with or without peptide i.c.v., morphine tolerant animals; assay type: in vivo; conditions: tolerant mice
# Description: (§1) Male simonesen ICR mice (Gilroy, CA) weighing between 20-25 g were housed for at least one day prior to experimentation, and used within 5 days. Each mouse was used only once.
# (§2) Analgesia was measured by the tail-flick method of D'Amour and Smith, J. Pharmac. Exp. Ther., 72, pp. 74-79 (1941), incorporated herein by reference, as modified by Tulunay and Takemori, J. Pharmac. Exp. Ther., 190, pp. 395-400 (1974), incorporated herein by reference. […] Nonresponding animals were removed from the heat stimulus when reaction times exceeded 10 sec. to avoid the tail damage.
# (§3) Drugs were injected 30 min. prior to testing, unless otherwise indicated.
# The animals were separated into two groups. […] Exp. Ther., 167, pp. 1-8 (1969), incorporated herein by reference.
# (§4) The ED50 values, their 95% confidence limits and significance of the potency ratio between two ED50 values were determined by the method of Litchfield and Wilcoxon, J. Pharmac. Exp. Ther., 96: 99-113 (1949), incorporated herein by reference.
# mouse vas deferens = conditions: read-out: IC50 inhibiting the twitch of the mouse vas deferens
# mice = experiment: Analgesic activity of the peptide by itself (mouse tail-flick)
# Description: as §2, §3
# [2] = compared with dynorphin(1-13)
# [3] = test system: morphine tolerant animals; experiment: Tail-flick analgesia, β-endorphin i.c.v. with or without dynorphin(1-13) i.c.v., morphine tolerant animals; assay type: in vivo; conditions: tolerant mice
# Text: as §1
# The animals were separated into two groups. The one group was morphine tolerant (e.g., addicted); the other group was naive (e.g., not addicted). […] Exp. Ther., 167, pp. 1-8 (1969), incorporated herein by reference.
# as §4
compound,measurement,setting,value
"CN1CC[C@]23c4c5ccc(O)c4O[C@H]2[C@@H](O)C=C[C@H]3[C@H]1C5.O=S(=O)(O)O [Morphine, morphine sulfate]",Analgesia (%),[1]; morphine 60 mg/kg s.c. alone,40%
same,Analgesia (%),[1]; morphine 80 mg/kg s.c. alone,90%
CC[C@H](C)[C@H](NC(=O)[C@H](CCCNC(=N)N)NC(=O)[C@H](CCCNC(=N)N)NC(=O)[C@H](CC(C)C)NC(=O)[C@H](Cc1ccccc1)NC(=O)CNC(=O)CNC(=O)[C@@H](N)Cc1ccc(O)cc1)C(=O)N[C@@H](CCCNC(=N)N)C(=O)N1CCC[C@H]1C(=O)N[C@@H](CCCCN)C(=O)N[C@@H](CC(C)C)C(=O)N[C@@H](CCCCN)C(=O)O [dynorphin(1-13)],IC50,mouse vas deferens,3.9 nM
"YGGFLRRIRP-NH2 [dynorphin(1-10) amide, Dynorphin(1-10)-NH2]",behavior at huge doses,mice,tends to produce convulsions
same,IC50,mouse vas deferens,0.24 nM
same,rate of metabolism by the host,[2],less quickly metabolized
β-endorphin,Analgesia (%),[3]; β-endorphin 1 μg/mouse i.c.v. alone,10%
same,Analgesia (%),[3]; β-endorphin 2 μg/mouse i.c.v. alone,40%
same,Analgesia (%),[3]; β-endorphin 6 μg/mouse i.c.v. alone,100%
same,ED50 of β-endorphin,[3]; β-endorphin i.c.v. alone,about 2.25 μg/mouse

# From US4462941A, “Dynorphin amide analogs” (The Regents of the University of California, priority 1982, dated 1984)
